Laboratory results published in the supplement of paper PMC10331698.
± gives the standard deviation of the averaged measurements.

Tests used:
Assay in all cases: LOEC (log10 uM (lowest observed effect concentration))
[1] = compound: O=C(CC(=O)C(F)(F)C(F)(F)C(F)(F)F)c1cccs1 [(Perfluorobutyryl)-2-thenoylmethane]
Protocol: (§1)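 BioMAP Diversity Plus panel in human primary cell co-cultures, 4 concentrations in duplicate blinded samples. Responses are log10 fold change versus DMSO control, processed with tcpl v2.1.0. A hit is called when responses at any concentration exceed the cutoff (the larger of 3*bmad or log10(1.2)); the lowest observed effect concentration (modl_ga, log10 uM) is reported for hits.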

Perfluoropinacol = compound: OC(C(F)(F)F)(C(F)(F)F)C(O)(C(F)(F)F)C(F)(F)F [Perfluoropinacol]
Protocol: as §1

[2] = compound: C=CC(=O)OCCC(F)(F)C(F)(F)C(F)(F)C(F)(F)C(F)(F)C(F)(F)C(F)(F)C(F)(F)F [8:2 Fluorotelomer acrylate]
Protocol: as §1

[3] = compound: OCCC(F)(F)C(F)(F)C(F)(F)C(F)(F)C(F)(F)C(F)(F)C(F)(F)C(F)(F)F [8:2 Fluorotelomer alcohol]
Protocol: as §1

[4] = compound: OCCCC(F)(F)C(F)(F)C(F)(F)C(F)(F)C(F)(F)C(F)(F)C(F)(F)C(F)(F)F [3-(Perfluorooctyl)propanol]
Protocol: as §1

[5] = compound: FC(F)(I)C(F)(F)C(F)(F)C(F)(F)C(F)(F)C(F)(F)I [1,6-Diiodoperfluorohexane]
Protocol: as §1

[6] = compound: C=CC(=O)OCC(F)(F)C(F)(F)C(F)(F)C(F)(F)COC(=O)C=C [1H,1H,6H,6H-Perfluorohexane-1,6-diol diacrylate]
Protocol: as §1

Perfluorooctanoic acid = compound: O=C(O)C(F)(F)C(F)(F)C(F)(F)C(F)(F)C(F)(F)C(F)(F)C(F)(F)F [Perfluorooctanoic acid]
Protocol: as §1

[7] = compound: O=P(O)(O)CCC(F)(F)C(F)(F)C(F)(F)C(F)(F)C(F)(F)C(F)(F)F [2-(Perfluorohexyl)ethylphosphonic acid]
Protocol: as §1

[8] = compound: OCC(F)(F)C(F)(F)C(F)(F)C(F)(F)C(F)(F)C(F)(F)C(F)(F)C(F)(F)CO [1H,1H,10H,10H-Perfluorodecane-1,10-diol]
Protocol: as §1

[9] = compound: Cc1ccc(S(=O)(=O)OCC(F)(F)C(F)(F)C(F)(F)C(F)(F)C(F)(F)C(F)F)cc1 [1H,1H,7H-Perfluoroheptyl 4-methylbenzenesulfonate]
Protocol: as §1

Test System	LOEC (log10 uM) [1]	LOEC (log10 uM) (Perfluoropinacol)	LOEC (log10 uM) [2]	LOEC (log10 uM) [3]	LOEC (log10 uM) [4]	LOEC (log10 uM) [5]	LOEC (log10 uM) [6]	LOEC (log10 uM) (Perfluorooctanoic acid)	LOEC (log10 uM) [7]	LOEC (log10 uM) [8]	LOEC (log10 uM) [9]
KF3CT MMP9 down	0.845	1.78	1.54 ± 0.34	1.07 ± 0.32	1.3	0.845	1.3	–	–	–	–
hDFCGF Proliferation up	–	–	–	–	–	–	–	1.3	1.78	–	–
KF3CT IL8 down	–	–	1.54 ± 0.34	–	1.3	1.07 ± 0.32	1.3	–	–	1.78	1.3
